Data on 2 compounds can be found in patent US20070249717A1, “PREVENTIVE/THERAPEUTIC AGENT FOR VISCERAL PAIN” (AJINOMOTO CO. INC, priority 2004, published 2007).

The target in one assay is T1, NK2 receptor (Oryctolagus cuniculus, UniProt P79218).
T1 construct: The pulmonary artery was isolated from a rabbit; from tissue; host or cells: isolated rabbit pulmonary artery
T1 sequence (P79218 1-384): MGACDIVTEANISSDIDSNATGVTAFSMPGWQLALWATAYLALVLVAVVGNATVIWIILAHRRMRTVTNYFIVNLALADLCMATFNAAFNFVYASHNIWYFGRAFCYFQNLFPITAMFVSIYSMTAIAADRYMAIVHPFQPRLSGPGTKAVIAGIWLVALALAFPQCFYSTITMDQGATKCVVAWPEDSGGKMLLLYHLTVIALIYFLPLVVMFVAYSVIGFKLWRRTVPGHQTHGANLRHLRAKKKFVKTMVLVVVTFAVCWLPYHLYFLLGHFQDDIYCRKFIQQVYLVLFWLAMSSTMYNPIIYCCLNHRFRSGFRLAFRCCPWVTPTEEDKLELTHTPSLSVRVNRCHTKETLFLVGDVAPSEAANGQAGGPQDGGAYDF
As to the kind of experiment: Action on NK2 receptor: [βAla^8]NKA(4-10)-induced contraction of isolated rabbit pulmonary artery. The format is cell-based. The protocol:
A test for NK2 receptor was performed according to the method reported by Emonds et al. (Emonds-Alt X., Advenier, C., Croco, T. Manara, L., Neliat, G., Poncelet, M., Proietto, V., Santucci, V., Soubrie, P., Van Broeck, D., Vilain, P., Le Fur, G. and Breliere, J. C. (1993) SR 48968, a neurokinin A (NK2) receptor antagonist Regul. Peptides. 46: 31-36). The pulmonary artery was isolated from a rabbit. The isolated tissue was hung in a solution of buffer (NaCl 118.0, KCl 4.7, MgSO4 1-2, CaCl2 2.5, KH2PO41.2, NaHCO3 25, glucose 11.0 (pH 7 4) (unit:mM) 37° C.) aerated with oxygen (95% oxygen, 5% carbon dioxide), added with benexytramine (1 μM, a receptor antagonist), propranolol (1 μM, β receptor antagonist), pyrilamine (1 μM, histamine H1 receptor antagonist), atropine (1 μM, muscarinic receptor antagonist) and metiserglde (1 μM, 5-HT2 receptor antagonist). After 60 min or more, lysine (0.3, 3, 30 mM) was added to the buffer, and the contraction of the pulmonary artery due to [βAla^8]NKA(4-10) was measured.
In Table 2, the pulmonary artery contraction by [βAla^8]NKA(4-10) was calculated as 100%.

Another assay addresses T2, GABAB receptor (Cavia porcellus, UniProt A0A286X9P6).
T2 construct: The ileum was isolated from a guinea pig; from tissue; host or cells: isolated guinea pig ileum
As to the kind of experiment: Action on GABAB receptor: electrically stimulated contraction of isolated guinea pig ileum. In kind it is cell-based. The following applies: for contraction (%): ileum contraction by electric stimulation calculated as 100%. The protocol:
A test for GABAB receptor was performed according to the method reported by Kerr et al. (Kerr, D. I. B. Ong, J., Johnston, G. A. R. Abbenante, J. and Prager, R. H. (1988) 2-hydroxy-saclofen: an improved antagonist at central and peripheral GABAB receptors. Neurosci. Lett. 92: 92-96). The ileum was isolated from a guinea pig. […]
In Table 1, the ileum contraction by electric stimulation was calculated as 100%.

For the next assay, the system named is 5-HT4 receptor. The following applies: cited from earlier work.
Assay [1] concerns stress-induced colon distension rat model (visceral pain). As to the kind of experiment: Visceral perceptual threshold in stress-induced colon distension visceral pain rat model. The following applies: for visceral perceptual threshold that decreased due to the stress: stressed SD rat, from 10 min after administration, Dunnett's test.
In the next assay the test system is wrap stress rat model. The following applies: in vivo; cited from earlier work.

T2 sequence (A0A286X9P6 30-844): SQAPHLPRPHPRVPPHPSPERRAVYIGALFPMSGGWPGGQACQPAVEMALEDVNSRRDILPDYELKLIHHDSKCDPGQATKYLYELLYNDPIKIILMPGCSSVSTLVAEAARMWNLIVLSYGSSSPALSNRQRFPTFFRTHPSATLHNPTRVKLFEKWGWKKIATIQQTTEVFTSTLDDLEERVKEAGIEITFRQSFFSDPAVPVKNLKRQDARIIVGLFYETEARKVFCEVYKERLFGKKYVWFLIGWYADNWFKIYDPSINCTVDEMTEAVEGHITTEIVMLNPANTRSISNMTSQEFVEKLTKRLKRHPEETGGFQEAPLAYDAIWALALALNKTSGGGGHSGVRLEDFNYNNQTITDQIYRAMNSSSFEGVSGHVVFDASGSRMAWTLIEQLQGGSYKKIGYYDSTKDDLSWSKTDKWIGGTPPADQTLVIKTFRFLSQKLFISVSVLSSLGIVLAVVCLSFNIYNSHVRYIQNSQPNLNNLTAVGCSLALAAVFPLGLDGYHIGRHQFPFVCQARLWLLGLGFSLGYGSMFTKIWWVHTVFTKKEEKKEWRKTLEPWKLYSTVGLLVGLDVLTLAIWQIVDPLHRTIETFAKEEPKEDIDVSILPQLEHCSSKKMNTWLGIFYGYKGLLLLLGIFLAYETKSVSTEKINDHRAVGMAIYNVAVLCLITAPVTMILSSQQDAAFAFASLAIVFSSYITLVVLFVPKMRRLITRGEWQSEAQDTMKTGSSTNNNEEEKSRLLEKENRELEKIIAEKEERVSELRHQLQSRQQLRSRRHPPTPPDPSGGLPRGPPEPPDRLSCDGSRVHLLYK
T2 sequence (H0V741 1-820 partner): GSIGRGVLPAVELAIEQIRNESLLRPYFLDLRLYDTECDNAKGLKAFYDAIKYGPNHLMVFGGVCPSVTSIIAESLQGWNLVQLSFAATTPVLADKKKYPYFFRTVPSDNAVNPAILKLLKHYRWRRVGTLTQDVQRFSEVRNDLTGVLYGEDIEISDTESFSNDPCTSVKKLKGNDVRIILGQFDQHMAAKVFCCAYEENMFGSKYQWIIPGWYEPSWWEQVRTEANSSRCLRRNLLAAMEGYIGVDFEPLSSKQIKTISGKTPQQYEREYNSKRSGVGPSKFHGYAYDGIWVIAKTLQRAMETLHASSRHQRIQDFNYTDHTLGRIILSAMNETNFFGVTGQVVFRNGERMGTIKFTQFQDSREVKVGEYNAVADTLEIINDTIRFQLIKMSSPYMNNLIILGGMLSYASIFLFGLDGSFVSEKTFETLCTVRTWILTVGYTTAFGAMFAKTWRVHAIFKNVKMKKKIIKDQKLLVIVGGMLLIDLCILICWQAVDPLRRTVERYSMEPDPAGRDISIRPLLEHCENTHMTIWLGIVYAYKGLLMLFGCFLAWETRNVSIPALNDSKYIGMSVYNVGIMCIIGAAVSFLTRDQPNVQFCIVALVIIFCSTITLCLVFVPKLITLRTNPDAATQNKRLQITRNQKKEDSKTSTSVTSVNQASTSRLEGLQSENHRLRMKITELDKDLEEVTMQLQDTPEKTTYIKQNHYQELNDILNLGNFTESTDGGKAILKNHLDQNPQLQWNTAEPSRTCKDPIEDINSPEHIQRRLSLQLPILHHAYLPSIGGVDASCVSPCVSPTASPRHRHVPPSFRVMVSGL

Consider [βAla^8]NKA(4-10) [reference compound], for which the “contraction (%)” value at NK2 receptor (3 × 10^−4 mM, agonist alone, reference set as 100%) was determined as 100%.
On to `NCCCC[C@H](N)C(=O)O` [lysine], for which the “contraction (%)” value is recorded as 0% on GABAB receptor (0.3 mM); −20% at GABAB receptor (3.0 mM); −77% at GABAB receptor (30 mM); 85% on NK2 receptor (0.3 mM, contraction by [βAla^8]NKA(4-10) calculated as 100%); 41% on NK2 receptor (3.0 mM, contraction by [βAla^8]NKA(4-10) calculated as 100%); 19% at NK2 receptor (30 mM, contraction by [βAla^8]NKA(4-10) calculated as 100%). Besides, the “ileum contraction via GABAB receptor” value at GABAB receptor (0.3-30, isolated guinea pig ileum) is recorded as “suppressed the ileum contraction via GABAB receptor, in a dose-dependent manner”. Besides, the “pulmonary artery contraction via NK2 receptor” value at NK2 receptor (0.3-30 mM, isolated rabbit pulmonary artery) was “suppressed the pulmonary artery contraction via NK2 receptor, in a dose-dependent manner”. Besides, the “action at 5-HT4 receptor” value in the assay on 5-HT4 receptor is reported as 5-HT4 receptor antagonist. Besides, the “time for which significant increase of visceral perceptual threshold was observed” value in assay [1] (1 g/kg or 3 g/kg orally) is “about 2 hr”. For the same compound, the “visceral perceptual threshold that decreased due to the stress” value in assay [1] (1 g/kg orally) and in assay [1] (3 g/kg orally) was “significantly increased” each time. Moreover, the “effect on wrap stress rat model” value in the assay on wrap stress rat model is listed as “treatment effect”.
